Measured values taken from PMC11052784 (European Journal of Drug Metabolism and Pharmacokinetics, 2024).
Like-named read-outs stand apart in the source and are kept apart here.

Assays:
CYP2C19 [1] = target: T1, CYP2C19 (Homo sapiens, UniProt P33261)
CYP3A [2] = assay: Midazolam DDI study
CYP1A2 = conditions: with abrocitinib 200 mg QD
CYP3A [3] = assay: Oral contraceptive DDI study; type: in vivo, human
[4] = test system: pregnane X receptor (PXR) pathway; assay: Induction via the pregnane X receptor pathway; type: in vitro ADME; conditions: data on file
Safety = type: in vivo, human; conditions: coadministered with midazolam, caffeine, efavirenz, omeprazole or oral contraceptives; healthy adult participants
CYP2B6 = conditions: after multiple doses of abrocitinib 200 mg QD
[5] = after administration as tablet; cited from earlier work
CYP2C19 [6] = conditions: cited from earlier work
CYP2C19 [7] = target: T1, CYP2C19; type: in vitro ADME; conditions: HLM
CYP3A4/5 = assay: Time-dependent inhibition; type: in vitro ADME, human; conditions: HLM; for TDI of CYP3A after 30-min preincubation: incubation concentration ≥ 99.5 µM
CYP1A2/2B6/2C19/3A = assay: Reversible inhibition in human liver microsomes; type: in vitro ADME; conditions: HLM
[8] = abrocitinib 200 mg QD with omeprazole 10 mg single dose
[9] = multiple doses of abrocitinib 200 mg QD, Day 7 vs midazolam alone
[10] = with abrocitinib 200 mg QD on Day 2 vs midazolam alone
[11] = with multiple doses of abrocitinib vs LN alone
[12] = after multiple doses of abrocitinib 200 mg QD

T1 sequence (P33261 whole entry): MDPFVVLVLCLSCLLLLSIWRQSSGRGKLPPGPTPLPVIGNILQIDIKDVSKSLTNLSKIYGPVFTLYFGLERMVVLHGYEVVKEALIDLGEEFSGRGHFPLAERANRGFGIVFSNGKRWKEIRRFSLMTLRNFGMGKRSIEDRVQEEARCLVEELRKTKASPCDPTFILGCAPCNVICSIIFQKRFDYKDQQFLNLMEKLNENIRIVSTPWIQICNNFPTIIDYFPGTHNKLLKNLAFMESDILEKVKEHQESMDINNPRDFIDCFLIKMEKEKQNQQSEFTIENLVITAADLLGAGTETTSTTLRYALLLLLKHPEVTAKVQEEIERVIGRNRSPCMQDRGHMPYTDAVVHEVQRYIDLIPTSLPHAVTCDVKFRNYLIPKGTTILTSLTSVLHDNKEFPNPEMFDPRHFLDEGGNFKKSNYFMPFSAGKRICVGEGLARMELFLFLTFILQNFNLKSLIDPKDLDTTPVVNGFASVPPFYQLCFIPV

## COc1ccc2[nH]c([S+]([O-])Cc3ncc(C)c(OC)c3C)nc2c1 (centres unmarked) [Omeprazole, omeprazole]
CYP2C19 [1]; [8]
  Increase of omeprazole AUCinf: approximately 2.9 fold
  Increase of omeprazole Cmax: ~2.3 fold
CYP2C19 [1]; with multiple doses of abrocitinib 200 mg QD
  Increase of omeprazole Cmax: ~134%

## Cc1ncc2n1-c1ccc(Cl)cc1C(c1ccccc1F)=NC2 [Midazolam, midazolam]
CYP3A [2]; [9]
  Decrease of adjusted geometric mean AUCinf of midazolam: approximately 7.7%
  Decrease of adjusted geometric mean Cmax of midazolam: ~6.5%
CYP3A [2]; [10]
  Decrease of adjusted geometric mean AUCinf of midazolam: approximately 15.7%
  Decrease of adjusted geometric mean Cmax of midazolam: ~13.7%

## Cn1c(=O)c2c(ncn2C)n(C)c1=O [Caffeine, caffeine]
CYP1A2
  Increase of caffeine AUCinf: 1.4 fold

## C#C[C@]1(O)CC[C@H]2[C@@H]3CCC4=CC(=O)CC[C@@H]4[C@H]3CC[C@@]21CC [Levonorgestrel, levonorgestrel]
CYP3A [3]; [11]
  Change of adjusted geometric mean AUClast: did not change
  Decrease of adjusted geometric mean Cmax: approximately 14%

## CCCS(=O)(=O)N[C@H]1C[C@@H](N(C)c2ncnc3[nH]ccc23)C1 [Abrocitinib, N-{cis-3-[Methyl(7H-pyrrolo[2,3-d]pyrimidin-4-yl)amino]cyclobutyl}propane-1-sulfo namide]
[4]
  Induction via the PXR pathway: weak signal
CYP3A [3]; [12]
  Effect of abrocitinib on the pharmacokinetics of OCs: lack of effect
Safety
  Overall safety and tolerability: generally safe and well tolerated
CYP2B6
  Effect of abrocitinib on the pharmacokinetics of efavirenz: lack of effect
[5]
  Median Tmax of abrocitinib: ≤ 1 h
CYP2C19 [6]
  Share of abrocitinib metabolism by CYP2C19: approximately 53%
CYP3A [2]; [12]
  Effect of abrocitinib on the pharmacokinetics of midazolam: lack of effect

## CN(c1ncnc2[nH]ccc12)[C@H]1C[C@@H](NS(=O)(=O)CCCO)C1 [M1]
CYP2C19 [7]
  TDI of CYP2C19 in the absence of NADPH: weak TDI
  TDI of CYP2C19 in the presence of NADPH: weak TDIs
CYP3A4/5
  TDI of CYP3A in the absence of NADPH: weak TDI
  TDI of CYP3A after 30-min preincubation: weak TDI
  TDI of CYP3A in the presence of NADPH: weak TDIs
CYP1A2/2B6/2C19/3A
  Reversible inhibition of CYP1A2/2B6/2C19/3A: no reversible inhibition

## CC(O)CS(=O)(=O)N[C@H]1C[C@@H](N(C)c2ncnc3[nH]ccc23)C1 (some centres unmarked) [M2]
CYP2C19 [7]
  TDI of CYP2C19 in the absence of NADPH: weak TDI
  TDI of CYP2C19 in the presence of NADPH: weak TDIs
CYP3A4/5
  TDI of CYP3A in the absence of NADPH: weak TDI
  TDI of CYP3A after 30-min preincubation: weak TDI
  TDI of CYP3A in the presence of NADPH: weak TDIs
CYP1A2/2B6/2C19/3A
  Reversible inhibition of CYP1A2/2B6/2C19/3A: no reversible inhibition
